Measurements from patent publication US20200085789A1, “USE OF A PROTEASOME INHIBITOR FOR THE TREATMENT OF CENTRAL NERVOUS SYSTEM (CNS) CANCERS” (Celgene International II Sàrl, priority 2017, published 2020).
Like-named read-outs stand apart in the source and are kept apart here.

Legend:
[1] = system: WHO Grade IV malignant glioma; details: cited from earlier work
[2] = Bevacizumab serum pharmacokinetics, peak and trough (Part 1 Phase 1); format: in vivo, human; details: for Cmax D 1: C1D1; for Cmax D 15 / Cmin D 15: C1D15
Source text: The drugs were infused on 28-Day Cycles.

[3] = Day 0, 10 mg/kg dose (Gordon et al., 2001); cited from earlier work
[4] = Adverse events and dose-limiting toxicity (NCI-CTCAE v 4.03), MRZ ± BEV in recurrent grade IV malignant glioma patients; format: in vivo, human
Source text: An adverse event (AE) is any noxious, unintended, or untoward medical occurrence that may appear or worsen in a subject during the course of a study. […] Any worsening (i.e., any clinically significant adverse change in the frequency or intensity of a pre-existing condition) should be considered an AE.
The severity/intensity of AEs will be graded based upon the subject's symptoms according to the current active minor version of the Common Terminology Criteria for Adverse Events ( ).

[5] = Heiland (Freiburg, Germany), All Pts
[6] = Heiland (Freiburg, Germany), Methylated
[7] = Heiland (Freiburg, Germany), Unmethylated
[8] = Wick (EORTC 26101 P2), Methylated
[9] = Wick (EORTC 26101 P2), Unmethylated
[10] = MRZ 0.7 mg/m^2 + BEV, Cohort 2 (N = 3)
[11] = MRZ 0.8 mg/m^2 + BEV, Cohorts 3 & 4 (N = 27)

**Q.** For bevacizumab [reference compound], which “6 mo Overall Survival” value ([1]; Field (CABARET), All Pts) is on record?
**A.** 61%

**Q.** And the “6 mo Progression Free Survival” value ([1]; Field (CABARET), All Pts)?
**A.** 18%

**Q.** What about the “9 mo Overall Survival” value ([1]; Field (CABARET), All Pts) of the same substance?
**A.** 39%

**Q.** And the “9 mo Progression Free Survival” value ([1]; Field (CABARET), All Pts)?
**A.** 6%

**Q.** And the “12 Mo. Overall Survival” value ([1]; Field (CABARET), All Pts)?
**A.** 24%

**Q.** What about the “6 mo Overall Survival” value [1, 5] of the same substance?
**A.** 18%

**Q.** What about the “9 mo Overall Survival” value [1, 5] of the same substance?
**A.** 30%

**Q.** What about the “9 mo Progression Free Survival” value [1, 5] of the same substance?
**A.** 0%

**Q.** What about the “12 Mo. Overall Survival” value [1, 5] of the same substance?
**A.** 10%

**Q.** And the “12 Mo. Progression Free Survival” value [1, 5]?
**A.** 0%

**Q.** And the “6 mo Overall Survival” value [1, 6]?
**A.** 58%

**Q.** What about the “6 mo Progression Free Survival” value [1, 6] of the same substance?
**A.** 38%

**Q.** And the “9 mo Overall Survival” value [1, 6]?
**A.** 40%

**Q.** What about the “9 mo Progression Free Survival” value [1, 6] of the same substance?
**A.** 22%

**Q.** What about the “12 Mo. Overall Survival” value [1, 6] of the same substance?
**A.** 24%

**Q.** What about the “12 Mo. Progression Free Survival” value [1, 6] of the same substance?
**A.** 10%

**Q.** What about the “6 mo Overall Survival” value [1, 7] of the same substance?
**A.** 25%

**Q.** What about the “6 mo Progression Free Survival” value [1, 7] of the same substance?
**A.** 10%

**Q.** What about the “9 mo Progression Free Survival” value [1, 7] of the same substance?
**A.** 0%

**Q.** And the “12 Mo. Progression Free Survival” value [1, 7]?
**A.** 0%

**Q.** What about the “6 mo Overall Survival” value ([1]; Taal (BELOB), All Pts) of the same substance?
**A.** 62%

**Q.** What about the “6 mo Progression Free Survival” value ([1]; Taal (BELOB), All Pts) of the same substance?
**A.** 16%

**Q.** What about the “9 mo Overall Survival” value ([1]; Taal (BELOB), All Pts) of the same substance?
**A.** 45%

**Q.** And the “9 mo Progression Free Survival” value ([1]; Taal (BELOB), All Pts)?
**A.** 8%

**Q.** And the “12 Mo. Overall Survival” value ([1]; Taal (BELOB), All Pts)?
**A.** 26%

**Q.** And the “6 mo Overall Survival” value ([1]; Taal (BELOB), Methylated)?
**A.** 83%

**Q.** And the “6 mo Progression Free Survival” value ([1]; Taal (BELOB), Methylated)?
**A.** 33%

**Q.** And the “9 mo Overall Survival” value ([1]; Taal (BELOB), Methylated)?
**A.** 67%

**Q.** What about the “9 mo Progression Free Survival” value ([1]; Taal (BELOB), Methylated) of the same substance?
**A.** 22%

**Q.** What about the “12 Mo. Overall Survival” value ([1]; Taal (BELOB), Methylated) of the same substance?
**A.** 56%

**Q.** And the “6 mo Overall Survival” value ([1]; Taal (BELOB), Unmethylated)?
**A.** 50%

**Q.** And the “6 mo Progression Free Survival” value ([1]; Taal (BELOB), Unmethylated)?
**A.** 8%

**Q.** And the “9 mo Progression Free Survival” value ([1]; Taal (BELOB), Unmethylated)?
**A.** 0%

**Q.** What about the “12 Mo. Overall Survival” value ([1]; Taal (BELOB), Unmethylated) of the same substance?
**A.** 8%

**Q.** What about the “12 Mo. Progression Free Survival” value ([1]; Taal (BELOB), Unmethylated) of the same substance?
**A.** 0%

**Q.** And the “6 mo Progression Free Survival” value ([1]; Wick (EORTC 26101 P2), All Pts)?
**A.** 14%

**Q.** And the “9 mo Progression Free Survival” value ([1]; Wick (EORTC 26101 P2), All Pts)?
**A.** 9%

**Q.** What about the “12 Mo. Progression Free Survival” value ([1]; Wick (EORTC 26101 P2), All Pts) of the same substance?
**A.** 8%

**Q.** And the “6 mo Progression Free Survival” value [1, 8]?
**A.** 25%

**Q.** What about the “9 mo Progression Free Survival” value [1, 8] of the same substance?
**A.** 9%

**Q.** And the “12 Mo. Progression Free Survival” value [1, 8]?
**A.** 9%

**Q.** What about the “6 mo Progression Free Survival” value [1, 9] of the same substance?
**A.** 10%

**Q.** What about the “9 mo Progression Free Survival” value [1, 9] of the same substance?
**A.** 10%

**Q.** What about the “12 Mo. Progression Free Survival” value [1, 9] of the same substance?
**A.** 10%

**Q.** What about the “6-month progression-free survival (PFS) rate” value ([1]; recurrent G4 MG, BEV alone) of the same substance?
**A.** ~43%

**Q.** What about the “median overall survival (OS)” value ([1]; recurrent G4 MG, BEV alone) of the same substance?
**A.** ~9 months

**Q.** What about the “mean Cmin” value ([2]; Day 15) of the same substance?
**A.** 95 µg/mL

**Q.** What about the “Cmax D 1” value ([2]; MRZ 0.7 mg/m^2 cohort) of the same substance?
**A.** 193 ± 8 (2) μg/mL

**Q.** And the “Cmax D 15” value ([2]; MRZ 0.7 mg/m^2 cohort)?
**A.** 402 ± 123 (3) μg/mL

**Q.** What about the “Cmin D 15” value ([2]; MRZ 0.7 mg/m^2 cohort) of the same substance?
**A.** 81.1 ± 17.4 (2) μg/mL

**Q.** And the “Cmax D 1” value ([2]; MRZ 0.8 mg/m^2 cohort)?
**A.** 267 ± 13.3 (3) μg/mL

**Q.** And the “Cmax D 15” value ([2]; MRZ 0.8 mg/m^2 cohort)?
**A.** 380 ± 56.5 (2) μg/mL

**Q.** And the “Cmin D 15” value ([2]; MRZ 0.8 mg/m^2 cohort)?
**A.** 85.0 ± 9.87 (3) μg/mL

**Q.** What about the “mean Cmax” value ([2]; all dose cohorts, Day 1, 10 mg/kg) of the same substance?
**A.** 275 µg/mL

**Q.** And the pharmacokinetic parameters ([2]; co-administration with marizomib)?
**A.** consistent with published parameters and not affected by co-administration

**Q.** And the “mean Cmax” value ([2]; second value printed for Day 1)?
**A.** 379 µg/mL

**Q.** What about the Cmax [3] of the same substance?
**A.** 284 µg/mL

**Q.** And the “Grade ≥3 Ataxia related to the labelled drug, patients” value [4, 10]?
**A.** 0

**Q.** What about the “Grade ≥3 Confusional State related to the labelled drug, patients” value [4, 10] of the same substance?
**A.** 0

**Q.** What about the “Grade ≥3 Delusion related to the labelled drug, patients” value [4, 10] of the same substance?
**A.** 0

**Q.** What about the “Grade ≥3 Dyspnea related to the labelled drug, patients” value [4, 10] of the same substance?
**A.** 0

**Q.** And the “Grade ≥3 Embolism related to the labelled drug, patients” value [4, 10]?
**A.** 0

**Q.** What about the “Grade ≥3 Fall related to the labelled drug, patients” value [4, 10] of the same substance?
**A.** 0

**Q.** What about the “Grade ≥3 Fatigue related to the labelled drug, patients” value [4, 10] of the same substance?
**A.** 0

**Q.** And the “Grade ≥3 Hallucination related to the labelled drug, patients” value [4, 10]?
**A.** 0

**Q.** What about the “Grade ≥3 Headache related to the labelled drug, patients” value [4, 10] of the same substance?
**A.** 0

**Q.** And the “Grade ≥3 Hypertension related to the labelled drug, patients” value [4, 10]?
**A.** 1

**Q.** What about the “Grade ≥3 Hyponatremia related to the labelled drug, patients” value [4, 10] of the same substance?
**A.** 0

**Q.** What about the “Grade ≥3 Insomnia related to the labelled drug, patients” value [4, 10] of the same substance?
**A.** 0

**Q.** And the “Grade ≥3 Intracranial Hemorrhage related to the labelled drug, patients” value [4, 10]?
**A.** 0

**Q.** What about the “Grade ≥3 Optic Nerve Disorder related to the labelled drug, patients” value [4, 10] of the same substance?
**A.** 0

**Q.** And the “Grade ≥3 Proteinuria related to the labelled drug, patients” value [4, 10]?
**A.** 1

**Q.** What about the “Grade ≥3 Ataxia related to the labelled drug, patients” value [4, 11] of the same substance?
**A.** 0

**Q.** And the “Grade ≥3 Confusional State related to the labelled drug, patients” value [4, 11]?
**A.** 0

**Q.** What about the “Grade ≥3 Delusion related to the labelled drug, patients” value [4, 11] of the same substance?
**A.** 0

**Q.** What about the “Grade ≥3 Dyspnea related to the labelled drug, patients” value [4, 11] of the same substance?
**A.** 1

**Q.** And the “Grade ≥3 Embolism related to the labelled drug, patients” value [4, 11]?
**A.** 1

**Q.** And the “Grade ≥3 Fall related to the labelled drug, patients” value [4, 11]?
**A.** 0

**Q.** And the “Grade ≥3 Fatigue related to the labelled drug, patients” value [4, 11]?
**A.** 1

**Q.** And the “Grade ≥3 Hallucination related to the labelled drug, patients” value [4, 11]?
**A.** 0

**Q.** What about the “Grade ≥3 Headache related to the labelled drug, patients” value [4, 11] of the same substance?
**A.** 1
